# Patent US11866692B2, “Fermentation fungal substance of astragalus membranaceus paecilomyces cicadae and its use” (BinZhou Medical University, priority 2019, dated 2024)
# System: rats with hyperuricemia
# Experiment: Efficacy test in potassium oxonate-induced hyperuricemia rats (serum UA, BUN, CRE, TG)
# Assay type: in vivo, Sprague Dawley (SD) rats
# Conditions: gavage twice each day for 14 days, 300 mg·kg−1 (benzbromarone 20 mg·kg−1), serum 4 h after last administration
# Method: SD rats were randomly divided into normal group, hyperuricemia (HUA) model group, positive medicine control group, Astragalus membranaceus group and fungal substance A group based on body mass, with 8 rats in each group. They were used in experiments after one week of adaptive feeding in an animal room. All groups were fed with normal feed. In addition, the normal group was treated with distilled water by gavage. Other groups were treated with 300 mg·kg^−1 of potassium oxonate by gavage each day for modeling. After 1 hour, the positive medicine control group was treated with 20 mg·kg^−1 of benzbromarone by gavage, the Astragalus membranaceus group was treated with 300 mg·kg^−1 of an Astragalus membranaceus powder solution by gavage, and the fungal substance A group was treated with 300 mg·kg^−1 of a fungal substance A solution by gavage. The treatment was performed twice each day for 14 consecutive days, and the dosage was 10 mL·kg^−1. Four hours after administration on the last day, blood samples were taken from the orbital venous plexus of the rats. The blood samples were stored at 4° C. overnight, and then centrifuged to obtain serum, which was for determination of biochemical indexes. After routine calibration and quality control, the contents of uric acid (UA), urea nitrogen (BUN), creatinine (CRE) and triglyceride (TG) in serum were determined by an automatic biochemical analyzer. All test results are expressed in the form of “mean±standard deviation”. Excel and software SPSS17.0 were utilized for calculation and statistics. After all data were tested for normal distribution and homogeneity of variance, single factor analysis of variance was performed. The difference between the two groups was tested by t-test. When P<0.05, the difference was considered to be statistically significant.
smiles,measurement,setting,value
CCc1oc2ccccc2c1C(=O)c1cc(Br)c(O)c(Br)c1 [benzbromarone],Serum UA level compared with the model group,FIG. 1,significantly reduced
same,Serum CRE level compared with the model group,FIG. 3,very significantly reduced
same,Serum TG level compared with the model group,FIG. 4,significantly reduced
